Legend:
[1] = biological target: T1, hydrogen peroxide generation by Aβ in the presence of copper (Homo sapiens, UniProt P05067); experiment: Fluorometric H2O2 assay (Assay 1); type: biochemical; settings: Aβ 1-42 with Cu-Gly, DCF/HRP, 37 C 60 min; several values in one cell = repeat determinations; read-out: Peroxide IC50
T1 construct: The reaction solutions contained Aβ 1-42 at concentrations in the range of 50 nM to 1 μM
Procedure, shortened: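 Aβ1-42 (50 nM–1 μM) with Cu-glycine (2 Cu-Gly : 1 Aβ) and a reductant (dopamine 5 μM or ascorbic acid) was incubated 60 min at 37 °C in PBS pH 7.4 with test compound. H2O2 was detected with 100 μM deacetylated DCF and 0.1 μM HRP by fluorescence against H2O2 standards.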

[2] = test system: transgenic Huntington's mice (R6/2); experiment: PBT1033 effects in transgenic Huntington's mice (Example 22); type: in vivo, mouse
From the text: This example describes an in vivo study of PBT1033 in transgenic Huntington's mice (R6/2) using the procedure of Nyuyen, Harby and Massa, 2005. During this study, 44 samples were collected for behavioral tests, including Rotarod performance, clasping tests, body weight and lifespan observations, and 24 samples were utilized for pathology assessments, including brain sectioning and staining for measuring lateral ventricle size, brain weight, whole brain western blotting for mutant Htt aggregate accumulation, and immunocytochemistry for Htt aggregates.
GROUP A: 10+6 (pathology) R6/2 MICE, treated daily with PBT1033
GROUP B: 10+6 (pathology) R6/2 MICE, treated daily with SSV solution
GROUP C: 12+6 (pathology) wild type (WT) mice, treated daily with PBT1033
GROUP D: 12+6 (pathology) WT mice, treated daily with SSV solution
3. PBT1033 in SSV solution was orally administered to mice at 0.6 mg/0.1 ml ([…])/20 g. The PBT1033 solution was taken up into a 1-cc syringe attached to a feeding needle and the drug was delivered by oral gavage.
4. Rotarod was assessed as described by Hockly et al., the contents of which are incorporated by reference, with the modification that the SDI Rota—Rod (San Diego Instruments, San Diego), was set to linearly increase in speed to 40 rpm in 4-min ramp time. Performance is at 4th, 8th, 10th, and 12th week, with three days (one for training) per period and three times per day.
5. Body Weight: once per week, start at age 3 weeks.
6. Clasping testing and Behavioral observation: once per week from 5th week and daily during the drug treating.
7. Lifespan observation: Group A and B were treated until they died.
8. Brain lateral ventricle size: mouse brain perfusion, sectioning and staining at age 10 weeks. Mice brains were perfused and fixed with 4% PFA and stained with H&E.
9. Whole Brain Western Blotting: whole mouse brain was homogenized in buffer (10 mM Tris HCl (pH 7.4) 11 mM EDTA Na2/1% Triton X100/complete protease inhibitor mixture and then centrifuged at 7000×g for 90 s. The supernatant was boiled in SDS sample buffer for 5 mm at 100° C.
40 micrograms of total protein was run on a 10% SDS gel with a 4% stacking gel. Antibody: anti-GAPDH (1:5000), EM48 anti-Htt antibody (1:1000)
10. Brain weight: brain weighed before freezing at −80° C.
11. Immunohistochemistry was performed in accordance with the procedure in Assay 15, hereinabove.

[3] = test system: healthy volunteers; experiment: Clinical study of 1033, single and multiple oral doses (Example 23); type: in vivo
Description: 1033 was administered to healthy volunteers in a 2-part study comprising single dose administration (Stage A) and multidose administration (Stage B).
The objectives of the following trials were to determine the safety, tolerability and pharmacokinetics of single and multiple oral doses of 1033 in healthy volunteers. Double-blind studies were conducted. The protocol included safety measures designed to capture the potential human adverse effects. A total of 65 healthy subjects have been exposed to doses of 1033 (41 single dose, 24 multiple dose).
In Stage A, fifty five (55) healthy male subjects aged 18-50 years were randomised (3:1) to receive a single oral dose of either placebo or 1033 at one of 7 dose levels (25, 50, 100, 200, 300, 500 or 800 mg).
In Stage B, thirty two (32) healthy male and female subjects aged 45-75 years (eight subjects per dose level) were randomised (3:1) to receive a daily oral dose over 7 consecutive days of either placebo or 1033 at one of 4 dose levels (200, 400, 600 or 800 mg). Each dose level comprised of 4 males and 4 females; the randomisation schedule ensuring that 1 subject/sex received placebo and 3 subjects/sex received 1033.

[4] = Toxicity at 30 mg/kg (In vivo Efficacy and Safety Profile)
[5] = Mice plasma concentration; type: in vivo
[6] = B:P Ratio; type: in vivo

T1 sequence (P05067 672-713 limits assumed): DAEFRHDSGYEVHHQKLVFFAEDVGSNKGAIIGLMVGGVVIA

Row | SMILES | IC50 [1] [nM] | life span ([2]; Group A (PBT1033) compared with Group B (SSV)) | clasping latency and duration ([2]; Group B (SSV) compared with Group A (PBT1033)) | body weight ([2]; Group B (SSV) vs A, C and D groups) | brain weight ([2]; R6/2 mice, Group A) | rotarod performance time ([2]; R6/2 mice, Group A, 10th week) [s] | rotarod performance time ([2]; R6/2 mice, Group A, 12 week) [s] | Lateral ventricle area ([2]; R6/2 mice, Group A, age 10 weeks) [mm^2] | mutant Huntingtin (Htt) protein aggregates, Western analysis ([2]; whole brain, HDexon1 mice) | tolerability, single oral dose ([3]; Stage A, healthy male volunteers aged 18 to 50 years, 25-800 mg) | clinical laboratory evaluations and physical assessments ([3]; Stage A, single oral dose) | incidence of adverse events ([3]; Stage A, single oral dose) [%] | tolerability, multiple dose ([3]; Stage B, healthy elderly subjects, daily oral dose over 7 days, 200-800 mg) | Toxicity at 30 mg/kg [4] | Mice plasma concentration [5] | B:P Ratio ([6]; at 5 min) | B:P Ratio ([6]; at 60 min)
1 | CN(C)Cc1ccc2c(Cl)cc(Cl)c(O)c2n1.Cl [compound 1033, 5,7-Dichloro-2-dimethylaminomethyl-quinolin-8-ol hydrochloride] | 380 | survived significantly longer | significantly greater | significantly decreased | 0.373±0.0228 | 28 ± 4 | 26 ± 4 | 0.36±0.086 | not in treated animals | well tolerated | No clinically significant or relevant changes | 43.9 | generally well tolerated | None | Up to 500 ng/ml | 12.85 | 9.45
2 | Cn1cnc(CCNC(=O)c2ccc3c(Cl)cc(Cl)c(O)c3n2)c1 [compound 1050, 5,7-dichloro-8-hydroxyquinoline-2-carboxylic acid [2-(1-methyl-1H-imidazol-4-yl)-ethyl]-amide] | 280 | – | – | – | – | – | – | – | – | – | – | – | – | – | – | – | –

Source: patent publication US9302993B2, “8-hydroxy quinoline derivatives” (PRANA BIOTECHNOLOGY LIMITED, priority 2002, dated 2016)
